Source: ChEMBL document CHEMBL5247595, “Synthesis, antitumor, and apoptosis-inducing activities of novel 5-arylidenethiazolidine-2,4-dione derivatives: Histone deacetylases inhibitory activity and molecular docking study” (Eur J Med Chem, 2022)
pIC50: −log10 of the molar value.

How the values were obtained:
Histone deacetylase 1 = Histone deacetylase 1 (Homo sapiens, UniProt Q13547); assay: Inhibition of HDAC1 (unknown origin) by ELISA assay
HepG2 [1] = assay: Induction of cell cycle arrest in human HepG2 cells assessed as accumulation at sub-G1 phase by PI-staining based flow cytometry (reference value: 12.6%); assay type: functional
Histone deacetylase 8 = target: T1, Histone deacetylase 8 (Homo sapiens, UniProt Q9BY41); assay: Inhibition of HDAC8 (unknown origin) by ELISA assay
T1 sequence (Q9BY41 whole entry): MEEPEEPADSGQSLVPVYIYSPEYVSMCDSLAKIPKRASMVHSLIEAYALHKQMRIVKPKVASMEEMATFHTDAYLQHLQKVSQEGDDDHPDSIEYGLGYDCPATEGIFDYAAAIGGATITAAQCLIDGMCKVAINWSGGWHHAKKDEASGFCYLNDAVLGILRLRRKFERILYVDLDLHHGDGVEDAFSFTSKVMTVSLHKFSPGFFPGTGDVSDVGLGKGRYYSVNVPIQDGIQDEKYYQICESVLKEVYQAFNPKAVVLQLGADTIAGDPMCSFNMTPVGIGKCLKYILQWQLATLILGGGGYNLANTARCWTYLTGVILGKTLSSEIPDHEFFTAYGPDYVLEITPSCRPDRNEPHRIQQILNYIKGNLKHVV

HeLa = assay: cells; assay type: functional, cell-based; details: Homo sapiens, 48 h
Description: Cytotoxicity against human HeLa cells assessed as inhibition of cell growth measured after 48 hrs by MTT assay

MCF7 [2] = assay: Induction of apoptosis in human MCF7 cells assessed as fold increase in caspases-7 expression by ELISA assay; assay type: functional
HCT-116 [3] = assay: Induction of apoptosis in human HCT-116 cells assessed as fold increase in BAX expression by ELISA assay; assay type: functional
HCT-116 [4] = assay: Induction of cell cycle arrest in human HCT-116 cells assessed as accumulation at G0/G1 phase by PI-staining based flow cytometry (reference value: 47%); assay type: functional
in vitro = details: human, WI-38 cells
Description: Cytotoxicity against human WI-38 cells assessed as inhibition of cell growth measured after 48 hrs by MTT assay

HCT-116 [5] = assay: cells; assay type: functional, cell-based; details: Homo sapiens, HCT-116, 48 h
Description: Cytotoxicity against human HCT-116 cells assessed as inhibition of cell growth measured after 48 hrs by MTT assay

HCT-116 [6] = assay: Induction of apoptosis in human HCT-116 cells assessed as fold increase in caspases-3 expression by ELISA assay; assay type: functional
MCF7 [7] = assay: Induction of apoptosis in human MCF7 cells assessed as fold increase in caspases-3 expression by ELISA assay; assay type: functional
MCF7 [8] = assay: Induction of cell cycle arrest in human MCF7 cells assessed as accumulation at sub-G1 phase by PI-staining based flow cytometry (reference value: 13.2%); assay type: functional
HCT-116 [9] = assay: Induction of cell cycle arrest in human HCT-116 cells assessed as accumulation at G2/M phase by PI-staining based flow cytometry (reference value: 29.2%); assay type: functional
HepG2 [10] = assay: Induction of cell cycle arrest in human HepG2 cells assessed as accumulation at G2/M phase by PI-staining based flow cytometry (reference value: 41.5%); assay type: functional
MCF7 [11] = assay: Induction of cell cycle arrest in human MCF7 cells assessed as accumulation at G0/G1 phase by PI-staining based flow cytometry (reference value: 40.8%); assay type: functional
HepG2 [12] = assay: Induction of cell cycle arrest in human HepG2 cells assessed as accumulation at G0/G1 phase by PI-staining based flow cytometry (reference value: 35.2%); assay type: functional
HCT-116 [13] = assay: Induction of apoptosis in human HCT-116 cells assessed as fold increase in caspases-7 expression by ELISA assay; assay type: functional
MCF7 [14] = assay: Induction of cell cycle arrest in human MCF7 cells assessed as accumulation at S phase by PI-staining based flow cytometry (reference value: 6.3%); assay type: functional
HCT-116 [15] = assay: Induction of cell cycle arrest in human HCT-116 cells assessed as accumulation at S phase by PI-staining based flow cytometry (reference value: 7.1%); assay type: functional
[16] = target: T2, Protein deacetylase HDAC6 (Homo sapiens, UniProt Q9UBN7); assay: Inhibition of HDAC6 (unknown origin) by ELISA assay
T2 sequence (Q9UBN7 whole entry): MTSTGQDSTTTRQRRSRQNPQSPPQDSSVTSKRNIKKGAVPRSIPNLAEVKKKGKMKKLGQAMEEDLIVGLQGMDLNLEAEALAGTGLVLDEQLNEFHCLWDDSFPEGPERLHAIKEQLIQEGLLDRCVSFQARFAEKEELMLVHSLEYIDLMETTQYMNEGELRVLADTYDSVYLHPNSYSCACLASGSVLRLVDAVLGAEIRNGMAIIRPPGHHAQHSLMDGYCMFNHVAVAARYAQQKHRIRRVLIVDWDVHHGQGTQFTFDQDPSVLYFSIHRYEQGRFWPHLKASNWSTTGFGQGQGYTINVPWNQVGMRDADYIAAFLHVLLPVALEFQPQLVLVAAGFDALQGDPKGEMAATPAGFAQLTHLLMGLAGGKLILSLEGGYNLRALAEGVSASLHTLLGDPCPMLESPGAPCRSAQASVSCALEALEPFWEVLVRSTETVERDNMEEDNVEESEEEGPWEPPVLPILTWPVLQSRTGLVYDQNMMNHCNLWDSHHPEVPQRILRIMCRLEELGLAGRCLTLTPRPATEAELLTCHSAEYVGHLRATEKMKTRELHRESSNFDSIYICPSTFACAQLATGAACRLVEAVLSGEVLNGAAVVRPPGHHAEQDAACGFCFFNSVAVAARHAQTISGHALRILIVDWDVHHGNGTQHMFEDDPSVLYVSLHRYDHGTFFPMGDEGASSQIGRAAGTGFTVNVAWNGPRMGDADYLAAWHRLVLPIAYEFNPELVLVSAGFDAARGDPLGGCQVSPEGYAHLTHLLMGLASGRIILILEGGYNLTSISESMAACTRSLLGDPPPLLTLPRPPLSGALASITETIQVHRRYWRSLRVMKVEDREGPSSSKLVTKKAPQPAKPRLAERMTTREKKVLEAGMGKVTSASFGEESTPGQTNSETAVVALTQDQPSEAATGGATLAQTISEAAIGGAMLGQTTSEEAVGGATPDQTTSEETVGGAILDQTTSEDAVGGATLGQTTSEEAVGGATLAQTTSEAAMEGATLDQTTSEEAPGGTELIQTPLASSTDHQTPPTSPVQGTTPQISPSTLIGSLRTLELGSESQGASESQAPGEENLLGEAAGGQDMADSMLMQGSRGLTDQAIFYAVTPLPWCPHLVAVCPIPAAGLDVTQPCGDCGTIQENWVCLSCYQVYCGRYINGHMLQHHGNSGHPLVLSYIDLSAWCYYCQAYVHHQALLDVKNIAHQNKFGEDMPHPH

Histone deacetylase 2 = Histone deacetylase 2 (Homo sapiens, UniProt Q92769); assay: Inhibition of HDAC2 (unknown origin) by ELISA assay
Histone deacetylase 2, sequence (Q92769 whole entry): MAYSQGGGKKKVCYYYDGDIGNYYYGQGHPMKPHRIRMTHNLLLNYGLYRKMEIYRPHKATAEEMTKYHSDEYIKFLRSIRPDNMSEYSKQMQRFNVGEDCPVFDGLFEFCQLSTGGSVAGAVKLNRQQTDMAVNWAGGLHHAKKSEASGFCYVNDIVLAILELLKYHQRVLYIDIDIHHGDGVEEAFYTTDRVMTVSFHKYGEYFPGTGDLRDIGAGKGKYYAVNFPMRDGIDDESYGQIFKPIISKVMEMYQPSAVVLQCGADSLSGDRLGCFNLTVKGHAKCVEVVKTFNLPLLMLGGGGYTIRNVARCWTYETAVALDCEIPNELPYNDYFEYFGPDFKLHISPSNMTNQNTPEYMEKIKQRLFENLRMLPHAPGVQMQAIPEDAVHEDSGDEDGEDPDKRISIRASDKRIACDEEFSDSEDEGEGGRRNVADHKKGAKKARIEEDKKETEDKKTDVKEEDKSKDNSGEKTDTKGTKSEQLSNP

MCF7 [17] = assay: Induction of cell cycle arrest in human MCF7 cells assessed as accumulation at G2/M phase by PI-staining based flow cytometry (reference value: 35.3%); assay type: functional
HepG2 [18] = assay: Induction of apoptosis in human HepG2 cells assessed as fold increase in caspases-3 expression by ELISA assay; assay type: functional
HCT-116 [19] = assay: Induction of cell cycle arrest in human HCT-116 cells assessed as accumulation at sub-G1 phase by PI-staining based flow cytometry (reference value: 12%); assay type: functional
HepG2 [20] = assay: Induction of apoptosis in human HepG2 cells assessed as fold increase in caspases-7 expression by ELISA assay; assay type: functional
HepG2 [21] = assay: Induction of apoptosis in human HepG2 cells assessed as fold increase in BAX expression by ELISA assay; assay type: functional
MCF7 [22] = assay: cells; assay type: functional, cell-based; details: Homo sapiens, MCF7, 48 h
Description: Cytotoxicity against human MCF7 cells assessed as inhibition of cell growth measured after 48 hrs by MTT assay

HepG2 [23] = assay: cells; assay type: functional, cell-based; details: Homo sapiens, HepG2, 48 h
Description: Cytotoxicity against human HepG2 cells assessed as inhibition of cell growth measured after 48 hrs by MTT assay

MCF7 [24] = assay: Induction of apoptosis in human MCF7 cells assessed as fold increase in BAX expression by ELISA assay; assay type: functional
HepG2 [25] = assay: Induction of cell cycle arrest in human HepG2 cells assessed as accumulation at S phase by PI-staining based flow cytometry (reference value: 5.8%); assay type: functional
PC-3 = assay: Cytotoxicity against human PC-3 cells assessed as inhibition of cell growth measured after 48 hrs by MTT assay; assay type: functional, cell-based; details: PC-3, 48 h

Histone deacetylase 1, sequence (Q13547 whole entry): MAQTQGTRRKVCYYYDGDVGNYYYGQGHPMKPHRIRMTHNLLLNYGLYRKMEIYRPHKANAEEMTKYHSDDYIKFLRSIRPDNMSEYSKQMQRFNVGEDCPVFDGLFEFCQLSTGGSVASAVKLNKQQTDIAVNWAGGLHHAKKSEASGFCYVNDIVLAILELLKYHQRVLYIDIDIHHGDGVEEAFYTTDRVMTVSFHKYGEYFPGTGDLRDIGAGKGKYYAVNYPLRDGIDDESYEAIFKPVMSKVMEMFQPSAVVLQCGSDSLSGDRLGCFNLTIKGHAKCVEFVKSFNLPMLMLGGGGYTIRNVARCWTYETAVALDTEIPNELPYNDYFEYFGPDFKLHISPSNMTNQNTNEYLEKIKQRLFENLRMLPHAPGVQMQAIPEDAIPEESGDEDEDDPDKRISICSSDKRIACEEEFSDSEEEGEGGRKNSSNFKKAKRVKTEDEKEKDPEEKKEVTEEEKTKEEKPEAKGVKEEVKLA

`COc1ccc(/C=C2\SC(=O)N(CCNC(=O)Nc3c(C)n(C)n(-c4ccccc4)c3=O)C2=O)cc1` showed a pIC50 (Histone deacetylase 1) of 6.55, an Activity (HepG2 [1]) of 43.4% and a pIC50 (Histone deacetylase 8) of 6.29. For the same molecule, the pIC50 (HeLa) was 5.21, the “fold change (FC)” value (MCF7 [2]) was 6.6 and the “fold change (FC)” value (HCT-116 [3]) was 4.9. It also gave an Activity (HCT-116 [4]) of 55.2%, an IC50 at 48 h (in vitro) of 34.5 µM and a pIC50 (HCT-116 [5]) of 5.50. The “fold change (FC)” value (HCT-116 [6]) was 3.9, the “fold change (FC)” value (MCF7 [7]) was 5.2 and the Activity (MCF7 [8]) was 31.7%. For the same molecule, the Activity (HCT-116 [9]) was 0%, the Activity (HepG2 [10]) was 0% and the Activity (MCF7 [11]) was 60.6%. For the same molecule, the Activity (HepG2 [12]) was 50.6%, the “fold change (FC)” value (HCT-116 [13]) was 3.7 and the Activity (MCF7 [14]) was 4.8%. It also gave an Activity (HCT-116 [15]) of 1.6%, a pIC50 [16] of 6.59 and a pIC50 (Histone deacetylase 2) of 6.08. For the same molecule, the Activity (MCF7 [17]) was 0.2%, the “fold change (FC)” value (HepG2 [18]) was 5.2 and the Activity (HCT-116 [19]) was 39.5%. The “fold change (FC)” value (HepG2 [20]) was 9.1, the “fold change (FC)” value (HepG2 [21]) was 13.13 and the pIC50 (MCF7 [22]) was 5.29. For the same molecule, the pIC50 (HepG2 [23]) was 5.08, the “fold change (FC)” value (MCF7 [24]) was 7.013 and the Activity (HepG2 [25]) was 1.6%. The pIC50 (PC-3) was 4.86.
Molecule `Cc1c(NC(=O)NCCN2C(=O)S/C(=C\c3ccc(Cl)cc3)C2=O)c(=O)n(-c2ccccc2)n1C` has a pIC50 (HeLa) of 4.53, an IC50 at 48 h (in vitro) of 27.5 µM and a pIC50 (HCT-116 [5]) of 4.44. It also gave a pIC50 (MCF7 [22]) of 4.33, a pIC50 (HepG2 [23]) of 4.41 and a pIC50 (PC-3) of 4.40.
`Cc1c(NC(=O)NCCN2C(=O)S/C(=C\c3ccc(Br)cc3)C2=O)c(=O)n(-c2ccccc2)n1C` gave a pIC50 (HeLa) of 4.14, an IC50 at 48 h (in vitro) of over 100 µM and a pIC50 (HCT-116 [5]) of 4.11. For the same molecule, the pIC50 (MCF7 [22]) was 4.24, the pIC50 (HepG2 [23]) was 4.28 and the pIC50 (PC-3) was under 4.00.
Work on `Cc1c(NC(=O)CN2C(=O)S/C(=C\c3ccc([N+](=O)[O-])cc3)C2=O)c(=O)n(-c2ccccc2)n1C` yielded a pIC50 (HeLa) of 4.11, an IC50 at 48 h (in vitro) of 43.8 µM and a pIC50 (HCT-116 [5]) of 4.04. It also gave a pIC50 (MCF7 [22]) of 4.08, a pIC50 (HepG2 [23]) of 4.07 and a pIC50 (PC-3) of under 4.00.
For `COc1ccc(/C=C2\SC(=O)N(CC(=O)Nc3c(C)n(C)n(-c4ccccc4)c3=O)C2=O)cc1`, the pIC50 (HeLa) was 4.19, the IC50 at 48 h (in vitro) was 52.9 µM and the pIC50 (HCT-116 [5]) was 4.15. The pIC50 (MCF7 [22]) was 4.12, the pIC50 (HepG2 [23]) was 4.16 and the pIC50 (PC-3) was 4.03.
For `Cc1ccc(/C=C2\SC(=O)N(CCNC(=O)Nc3c(C)n(C)n(-c4ccccc4)c3=O)C2=O)cc1`, the pIC50 (HeLa) was 4.65, the IC50 at 48 h (in vitro) was 48.1 µM and the pIC50 (HCT-116 [5]) was 4.49. For the same molecule, the pIC50 (MCF7 [22]) was 4.43, the pIC50 (HepG2 [23]) was 4.59 and the pIC50 (PC-3) was 4.23.
